Laboratory results reported in a melting point compilation (Tetko et al.; mined from patent text by program, amines drawn as free bases though some values may be those of a salt).

| SMILES | melting point [°C] |
| --- | --- |
| CCOC(=O)c1ccc(C=C(C)c2cc3c(cc2C)C(C)(C)CCC3(C)C)cc1 | 109 to 110 |
| CC(=O)OC1CC2C3CCC4=CC(=O)CCC4(C)C3CCC2(C)C1N(C)C(=O)C(F)(F)F (configuration not stated) | 173 to 174 |
| N#Cc1cc(=O)n(-c2c(Cl)cc(C(F)(F)F)cc2Cl)[nH]1 | 198 to 201 |
| O=C(O)Cc1c(Cl)cc([N+](=O)[O-])cc1Cl | 206 to 207 |
| Cc1cc(Cl)nc(C#N)c1 | 133 |
| O=C(O)c1cnn(OCCCC2OCCO2)c1 | 85 |
| COc1ccc(CCNC(=O)CNc2cccc(C(N)=O)c2)cc1OC | 133 to 135 |
| O=c1c2cc(F)c(F)cc2n(CCF)c(=O)n1OCc1ccccc1 | 145 to 147 |
| CCN(C(=O)OCc1ccccc1)c1c(OC)cc(C(=O)OC)cc1OC | 85 to 86 |
| O=C1N(CC2CCCCC2)c2ccccc2C12COc1cc3c(cc12)OCO3 (configuration not stated) | 153 to 154 |
| COc1ccc(-n2c(Cl)ccc2-c2ccc(S(N)(=O)=O)cc2)cc1 | 119 to 120 |
| C=CC(=O)NC(C)(C)CS(=O)(=O)OC | 80.6 |
| O=C1Nc2ccccc2SC1CCCl (configuration not stated) | 133 to 134 |
| CCC1CCCCN1C(=O)c1cc2ccccc2c(-c2ccccc2)n1 (configuration not stated) | 86 |
| CC(C)c1ccc(-n2nnc(-c3ccc(OC(=O)C(C)(C)C)cc3)n2)cc1 | 122 to 125 |
| O=C(O)c1ccccc1-c1cc(-c2ccc(Cl)cc2)on1 | 174 to 176 |
| Nc1nc2ccccc2c2c1nc(-c1ccccc1)n2CCCCNC(=O)c1cccnc1 | 84.5 to 86.1 |
| CCNC(=NC#N)NCC(=O)N(C)c1ccc(Cl)c(COc2cccn3c(Br)c(C)nc23)c1Cl | > 250 |
| CC(C)(C)COC1CCC(=O)N1C(=O)c1ccccc1 (configuration not stated) | 83 to 85 |
| CC(C)NC(=O)c1c(NC(=O)c2cc(C(F)(F)F)nn2-c2ncccc2Cl)c(Cl)cc2cn[nH]c12 | 245 to 247 |
| CCCOc1ccccc1-c1nc2nc(NC3CC3)ncc2c(=O)[nH]1 | 208 |
| CC1CCCCN1CCC(=O)Nc1ccc2c(=O)c3ccc(NC(=O)CCN4CCCCC4C)cc3[nH]c2c1 (configuration not stated) | > 320 |
| Cc1c(C(=O)Nc2ccc(N3CCC(CCO)CC3)c(C#N)c2)cnn1-c1ccc(F)cc1 | 186 |
| Cc1sc(C(=O)O)cc1CC#N | 196 to 198 |

| SMILES | melting point [°C] |
| --- | --- |
| CC(c1ccc(N)cc1)n1ccnc1 (configuration not stated) | 130 |
| NC(=O)[C@H]1CCC[C@H]1C(=O)O (relative stereo) | 132 to 133 |
| O=C(NC1CCCCC1)OCc1ccccc1[N+](=O)[O-] | 101 to 102 |
| CNc1cc(F)ccc1C(C)=O | 52 to 53 |
| O=S(Cc1ccc(Cl)c(Cl)c1)c1nc2cnccc2[nH]1 (configuration not stated) | 198 to 201 |
| CCCCn1nnc(NCc2ccc(-c3ccccc3-c3nnn[nH]3)cc2)c1C(=O)O | 154 to 155 |
| CCc1nc(O)c2sccc2n1 | 233 to 237 |
| CC1CC(N)=NN1c1ccccc1 (configuration not stated) | 104 to 106 |
| CCCSc1nc(C)c(CO)n1-c1ccccc1Cl | 98 to 101 |
| COC1(c2cc(F)cc(Sc3ccc4c(c3)n(C)c(=O)n4C)c2)CCOCC1 | 128 to 130 |
| Cc1[nH]c(=O)c(C#N)cc1C(=O)n1ccnc1 | 237 to 238 |
| COc1cc2ccccc2cc1N(C)C(=O)N1CCN(c2cc(Cl)cc(Cl)c2)CC1 | 165 to 167 |
| O=C(O)C1CCN(c2nnc(NCc3ccc4c(c3)OCO4)c3ccncc23)CC1 | 138 to 140 |
| CC(C)C(C)(C(N)=O)N1C(=O)c2ccc3ccsc3c2C1=O (configuration not stated) | 199 to 200 |
| CCOC(=O)C1=C(C=O)NC(C(F)(F)F)=C(C(=O)OCC)C1c1cccc2nonc12 (configuration not stated) | 94 to 95 |
| COc1ccc(NC(=O)c2cc(-c3ccc(F)cc3F)ccc2O)cc1OC | 186 to 187 |
| CCn1c(=O)ccc2cnc(Nc3cccc(F)c3)nc21 | 210 to 212 |
| CC(C)(CC(=O)C(=O)Nc1ccc2c(c1Br)COC2=O)c1ccccc1 | 150 to 152 |
| COC(=O)c1c(C)nc(C)c(C(=O)OCC2CCCO2)c1-c1cccc(O)c1 (configuration not stated) | 95 to 97 |
| CS(=O)(=O)Nc1cc(O)c2c(c1)C(=O)c1cccc(O)c1C2=O | > 300 |
| Clc1cccc(N2CCN(c3nc4cccccc-4n3)CC2)c1 | 217 to 219 |
| COc1cc(C=C2CC(=O)OC2=O)cc(OC)c1OC | 184 to 187 |
| COc1ccc(C(=O)Nc2ccc(F)c(F)c2)cc1NCc1cccs1 | 172 to 174 |
| Cn1nnnc1-c1cn(C)c2cc(C#N)ccc2c1=O | 301 to 303 |

| SMILES | melting point [°C] |
| --- | --- |
| CNC(=O)N1CC(Oc2ccc(Cl)cc2)C1 | 144 to 145 |
| Clc1ccc(-c2cccc3[nH]c4c(c23)CCN(Cc2ccccc2)CC4)c(Cl)c1 | 194 to 196 |
| CCCCCN(CCCCC)C(=O)C(CCC(=O)O)CS(=O)(=O)c1ccc(Cl)c(Cl)c1 (configuration not stated) | 76 to 79 |
| Cc1c(F)cc(C(=O)O)cc1F | 153 |
| Fc1ccccc1C1=NCc2ccccc2-c2ccc(Br)cc21 | 104 to 105 |
| CCC(Oc1ccc(Cl)c(C)c1)C(=O)NCc1ccccc1Cl (configuration not stated) | 107 to 109 |
| Nc1ccc(C(=O)N(CCN2CCC(C(=O)c3ccc(F)cc3)CC2)c2cccc(N)c2)cc1 | 108 to 110 |
| Cn1cc(-c2ccncn2)ccc1=O | 147 to 149 |
| Cc1ccc(-n2nc(C(F)F)cc2-c2ccc(S(C)(=O)=O)c(F)c2)cc1Cl | 146 to 147 |
| c1coc(-c2cc3[nH]ccn3n2)c1 | 186 to 188 |
| COc1cccc(CC(=O)O)c1OCCCc1cc(OC(C)C)nn1Cc1ccc(Cl)cc1C | 108 to 109 |
| Cc1cc2oc(=O)c(NC(=O)Nc3cccc(C(F)(F)F)c3)c(-c3ccccc3C)c2cc1Cl | 203 to 205 |
| NC(=O)[C@@H]1[C@H](Nc2c(Br)cnc3[nH]c(-c4cccc(CN5CCOCC5)c4)nc23)[C@H]2C=C[C@@H]1C2 | 184 to 185 |
| O=C(O)c1cccc2nc3n(c12)CCC3 | 310 to 312 |
| CN(CCOc1ccc(OC(F)(F)F)cc1)CC1(C)Cn2cc([N+](=O)[O-])nc2O1 (configuration not stated) | 86.4 to 89.2 |
| CCCNC(C)=C1C(=O)OC(=O)C(C(C)=O)=C1O | 145 to 148 |
| COc1cc(OC)cc(N2CCN(C(=O)N(C)c3cc4ccccc4cc3OC)CC2)c1 | 83 to 85 |
| CS(=O)(=O)c1ccc(-c2cnn(-c3ccc(F)c(F)c3)c(=O)c2C#Cc2ccccc2)cc1 | 211 to 213 |
| Cc1ccc(-n2c(-c3cc(C)ccc3C=Cc3ccccc3)ccc2-c2cc(C)ccc2C=Cc2ccccc2)cc1 | 314 to 316 |
| O=C(Sc1ccccn1)c1ccc(I)cc1 | 127 |
| O=C(C1CCCC1)N1CCc2cc(S(=O)(=O)N3CCN(c4cccc(Cl)c4)CC3)ccc21 | 166 to 167 |
| CC(C)c1cccc(COCCO)c1NC(=O)CC1c2ccccc2Oc2ccccc21 | 153 to 154 |
| O=C(c1ccccc1)c1cc([N+](=O)[O-])ccc1NC1CC1 | 125 |
| CNC(=O)C1=CC(C)(CF)Oc2ccc([N+](=O)[O-])cc21 (configuration not stated) | 171 to 173 |
